Reference: patent US7511137B2, “Stereoisomers and stereoisomeric mixtures of 1-(2,4-pyrimidinediamino)-2-cyclopentanecarboxamide synthetic intermediates” (Rigel Pharmaceuticals, Inc., priority 2003, dated 2009)
“Also recorded” adds a separate entry of the source. Like-named read-outs stand apart in the source and are kept apart here.

Key:
Format in all cases: cell-based
HCT116 (colon/p53wt) = experiment: in vitro antiproliferation assay, HCT116; settings: Homo sapiens, HCT-116; HCT116 colon/p53wt tumor cell line
Protocol: (§1) The four stereoisomers isomers of (1S, 2R)-1-(2,4-pyrimidinediamino)-2-cyclopentanecarboxamide (1), (2), (3) and (4) were prepared as described in Examples 1-4. The racemic mixture of the cis compound was prepared as described herein. The IC50 values of various compounds against different tumor cell lines were determined using standard in vitro antiproliferation assays. The tumor cell lines tested were as follows: A549 (lung); H1299 (lung); DU145 (prostate); HCT116 (colon/p53wt); and mirapaca.

[1] = tested on: a variety of tumor cell lines; experiment: conventional antiproliferative assays, result in words
Protocol: Accordingly, stereoisomers of related 1-(2,4-pyrimidinediamino)-2-cyclopentanecarboxamides are expected to have analogous activity in antiproliferative assays.
as §1

A549 (lung) = experiment: in vitro antiproliferation assay, A549; settings: Homo sapiens; A549 lung tumor cell line
Protocol: as §1

H1299 (lung) = experiment: in vitro antiproliferation assay, H1299; settings: Homo sapiens, NCI-H1299; H1299 lung tumor cell line
Protocol: as §1

DU145 (prostate) = experiment: in vitro antiproliferation assay, DU145; settings: Homo sapiens, DU-145; DU145 prostate tumor cell line
Protocol: as §1

Row | IC50 (HCT116 (colon/p53wt)) | IC50 (A549 (lung)) | IC50 (H1299 (lung)) | IC50 (DU145 (prostate)) | SMILES | antiproliferative activity (in words) [1] | antiproliferative activity (in words) ([1]; listed as trans (1S, 2S))
1 | < 0.1 µM | – | – | – | Cc1cc(Nc2ncc(F)c(N[C@@H]3CCC[C@@H]3C(N)=O)n2)ccc1N1CCN(C)CC1 [Compound 1, (1S, 2R)-1-(2,4-pyrimidinediamino)-2-cyclopentanecarboxamide] | antiproliferative activity; also recorded: active | –
2 | – | < 5 µM | < 10 µM | – | Cc1cc(Nc2ncc(F)c(N[C@H]3CCC[C@H]3C(N)=O)n2)ccc1N1CCN(C)CC1 [Compound 2, (1R, 2S)-1-(2,4-pyrimidinediamino)-2-cyclopentanecarboxamide] | antiproliferative activity; also recorded: active | –
3 | – | > 20 µM | > 20 µM | – | Cc1cc(Nc2ncc(F)c(N[C@H]3CCC[C@@H]3C(N)=O)n2)ccc1N1CCN(C)CC1 [Compound 3, (1S, 2S)-1-(2,4-pyrimidinediamino)-2-cyclopentanecarboxamide] | antiproliferative activity | inactive
4 | < 5 µM | < 5 µM | < 5 µM | < 5 µM | Cc1cc(Nc2ncc(F)c(N[C@@H]3CCC[C@H]3C(N)=O)n2)ccc1N1CCN(C)CC1 [Compound 4, (1R, 2R)-1-(2,4-pyrimidinediamino)-2-cyclopentanecarboxamide] | active | –
